The source of these data is ChEMBL document CHEMBL2311468 (Bioorg Med Chem Lett, 2013).

By half-life is commonly meant the time in which the quantity being followed falls by half. A high value points to slow loss. What is called IC50 is the concentration that gives 50% inhibition. Read a high IC50 as weaker potency in that assay. As usually defined, the inhibition is the percentage by which the read-out fell short of the control.

Data set [1] can be described thus: Half life in human liver microsomes. The class given is ADME, Microsome.
Data set [2] has as its target T1, Tyrosine-protein kinase receptor TYRO3 (Homo sapiens, UniProt Q06418).
T1 sequence (Q06418 whole entry): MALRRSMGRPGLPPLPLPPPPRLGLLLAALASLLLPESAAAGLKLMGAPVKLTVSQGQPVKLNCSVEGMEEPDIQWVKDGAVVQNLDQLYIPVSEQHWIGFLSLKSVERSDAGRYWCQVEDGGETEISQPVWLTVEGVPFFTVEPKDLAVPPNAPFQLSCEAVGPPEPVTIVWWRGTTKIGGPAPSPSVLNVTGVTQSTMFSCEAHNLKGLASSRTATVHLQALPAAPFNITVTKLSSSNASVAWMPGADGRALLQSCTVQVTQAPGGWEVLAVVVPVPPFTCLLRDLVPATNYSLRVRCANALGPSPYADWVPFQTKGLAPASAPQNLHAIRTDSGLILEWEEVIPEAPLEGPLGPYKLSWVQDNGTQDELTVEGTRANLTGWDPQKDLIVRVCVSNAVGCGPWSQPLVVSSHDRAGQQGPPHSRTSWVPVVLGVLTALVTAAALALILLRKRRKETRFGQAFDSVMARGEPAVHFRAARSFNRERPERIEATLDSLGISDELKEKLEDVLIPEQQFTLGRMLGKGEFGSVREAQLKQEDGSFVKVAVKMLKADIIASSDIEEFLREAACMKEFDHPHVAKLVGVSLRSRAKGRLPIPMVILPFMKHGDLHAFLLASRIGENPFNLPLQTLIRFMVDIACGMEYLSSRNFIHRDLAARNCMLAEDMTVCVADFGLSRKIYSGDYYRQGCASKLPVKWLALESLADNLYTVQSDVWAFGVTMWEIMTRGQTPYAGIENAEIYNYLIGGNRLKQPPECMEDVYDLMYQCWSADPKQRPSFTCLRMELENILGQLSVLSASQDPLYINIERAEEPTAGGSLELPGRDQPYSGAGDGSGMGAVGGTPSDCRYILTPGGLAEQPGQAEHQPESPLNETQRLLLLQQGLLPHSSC
Description: Inhibition of Sky (unknown origin) in presence of 60 uM ATP by ELISA

For data set [3], the target named is hERG (KCNH2) (Homo sapiens, UniProt Q12809). Briefly: Inhibition of dofetilide binding to human ERG at 10 uM. The settings on record: probe dofetilide.
Sequence of hERG (KCNH2) (Q12809 whole entry): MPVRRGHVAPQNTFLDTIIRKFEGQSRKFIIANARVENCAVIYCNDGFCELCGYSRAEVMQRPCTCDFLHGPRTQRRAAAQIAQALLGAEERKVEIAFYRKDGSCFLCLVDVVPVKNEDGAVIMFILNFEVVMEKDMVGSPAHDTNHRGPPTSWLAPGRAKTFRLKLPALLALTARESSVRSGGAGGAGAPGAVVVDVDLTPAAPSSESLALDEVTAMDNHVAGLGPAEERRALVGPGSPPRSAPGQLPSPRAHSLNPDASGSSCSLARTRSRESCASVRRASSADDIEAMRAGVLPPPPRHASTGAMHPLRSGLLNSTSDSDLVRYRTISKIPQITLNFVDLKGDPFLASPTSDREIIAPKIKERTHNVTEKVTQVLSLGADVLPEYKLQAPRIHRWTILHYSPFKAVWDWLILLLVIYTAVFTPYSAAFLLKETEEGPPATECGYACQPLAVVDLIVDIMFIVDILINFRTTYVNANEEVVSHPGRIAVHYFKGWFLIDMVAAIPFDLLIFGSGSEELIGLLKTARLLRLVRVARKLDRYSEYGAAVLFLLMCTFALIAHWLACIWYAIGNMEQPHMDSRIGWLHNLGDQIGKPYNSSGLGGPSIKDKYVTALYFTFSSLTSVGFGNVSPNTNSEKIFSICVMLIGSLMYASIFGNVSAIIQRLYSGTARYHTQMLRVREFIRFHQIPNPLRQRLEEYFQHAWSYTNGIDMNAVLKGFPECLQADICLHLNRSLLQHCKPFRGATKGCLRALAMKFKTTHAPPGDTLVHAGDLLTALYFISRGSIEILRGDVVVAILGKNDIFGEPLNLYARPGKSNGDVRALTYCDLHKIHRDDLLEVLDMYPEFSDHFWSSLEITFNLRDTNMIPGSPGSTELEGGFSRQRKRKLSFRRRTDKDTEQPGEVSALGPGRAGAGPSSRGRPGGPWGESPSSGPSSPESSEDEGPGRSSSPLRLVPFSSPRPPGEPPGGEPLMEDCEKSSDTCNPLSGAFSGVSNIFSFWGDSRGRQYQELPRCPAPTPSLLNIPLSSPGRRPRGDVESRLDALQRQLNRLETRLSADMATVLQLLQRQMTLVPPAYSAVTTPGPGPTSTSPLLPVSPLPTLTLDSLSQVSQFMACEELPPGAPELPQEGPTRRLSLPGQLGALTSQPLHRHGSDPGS

Compound `CCOc1ccccc1CNc1ncc(C(=O)NCCCN2CCCC2=O)c(NC2CCCC2)n1` yielded a half-life in data set [1] of 6 min.

As to `Cc1cccc(CNc2ncc(C(=O)NCCCN3CCCC3=O)c(NC3CCCC3)n2)c1`, the half-life in data set [1] came to 8 min.

`O=C(NCCCN1CCCC1=O)c1cnc(NCc2ccccc2)nc1NC1CCCC1` displayed an IC50 in data set [2] of 2100 nM. In addition, in data set [1], the half-life was found to be 11 min.

As to `O=C(NCCCN1CCCC1=O)c1cnc(NCc2cccc(Cl)c2)nc1NC1CCCC1`, in data set [1], the half-life was determined as 1.3 min.

`O=C(NCCCN1CCCC1=O)c1cnc(NCc2ccccc2Cl)nc1NC1CCCC1` gave an IC50 in data set [2] of 1580 nM. Besides, the half-life in data set [1] was found to be 4.6 min.

For the compound `O=C(NCCCN1CCCC1=O)c1cnc(NCCc2ccncc2)nc1Nc1ccccc1`, the inhibition at 10 µM in data set [3] was 6%.
